From ChEMBL document CHEMBL1201862, “PubChem BioAssay data set” (2004)
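Dose response: 5 concentrations. Exposure: 48 h. Format: 96-well plates. Endpoint: linear interpolation; highest concentration if not reached. GI50 is the concentration that inhibits growth by half.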 Active and inactive are the calls of the source. Rule as the data show it: active = GI50 up to about 1.1 µM and inactive = higher.

How the values were obtained:
Experiment in all cases: growth of human tumour cells (NCI), 48 h
OVCAR-3 = tested on: OVCAR-3
K562 = tested on: K562
OVCAR-4 = tested on: OVCAR-4
HOP-92 = tested on: HOP-92
SW-620 = tested on: SW-620
TK-10 = tested on: TK-10
HCT-15 = tested on: HCT-15
SK-OV-3 = tested on: SK-OV-3
LOX IMVI = tested on: LOX IMVI
RXF 393 = tested on: RXF 393
RPMI-8226 = tested on: RPMI-8226
UACC-62 = tested on: UACC-62
SR = tested on: SR
ACHN = tested on: ACHN
OVCAR-8 = tested on: OVCAR-8
SNB-75 = tested on: SNB-75
CCRF-CEM = tested on: CCRF-CEM
SK-MEL-5 = tested on: SK-MEL-5
SK-MEL-28 = tested on: SK-MEL-28
NCI-H226 = tested on: NCI-H226

Row | SMILES | GI50 (OVCAR-3) | GI50 (K562) | GI50 (OVCAR-4) | GI50 (HOP-92) | GI50 (SW-620) | GI50 (TK-10) | GI50 (HCT-15) [µM] | GI50 (SK-OV-3) | GI50 (LOX IMVI) | GI50 (RXF 393) | GI50 (RPMI-8226) | GI50 (UACC-62) | GI50 (SR) | GI50 (ACHN) | GI50 (OVCAR-8) | GI50 (SNB-75) | GI50 (CCRF-CEM) | GI50 (SK-MEL-5) | GI50 (SK-MEL-28) | GI50 (NCI-H226)
1 | C=C(Br)CN(C)CC(=C)Br | > 100 µM (inactive) | > 100 µM (inactive) | > 100 µM (inactive) | > 100 µM (inactive) | > 100 µM (inactive) | 50.1 µM (inactive) | > 100 | > 100 µM (inactive) | > 100 µM (inactive) | > 100 µM (inactive) | > 100 µM (inactive) | > 100 µM (inactive) | > 100 µM (inactive) | > 100 µM (inactive) | > 100 µM (inactive) | > 100 µM (inactive) | > 100 µM (inactive) | > 100 µM (inactive) | > 100 µM (inactive) | –
2 | CC1C2CC(C(C3C(=O)C4CC3C(C)(C)C4C)C2=O)C1(C)C (stereo not drawn) | > 100 µM (inactive) | > 100 µM (inactive) | > 100 µM (inactive) | > 100 µM (inactive) | > 100 µM (inactive) | > 100 µM (inactive) | – | > 100 µM (inactive) | – | > 100 µM (inactive) | – | > 100 µM (inactive) | > 100 µM (inactive) | > 100 µM (inactive) | > 100 µM (inactive) | > 100 µM (inactive) | > 100 µM (inactive) | > 100 µM (inactive) | > 100 µM (inactive) | > 100 µM (inactive)
3 | CCC(C)C(=O)c1c(O)c(C/C=C(\C)CCC=C(C)C)c(O)c2c(C(O)CC)cc(=O)oc12 (stereo not drawn) | 2.69 µM (inactive) | 0.679 µM (active) | 2.11 µM (inactive) | 1.63 µM (inactive) | 1.98 µM (inactive) | 3.81 µM (inactive) | – | 4.41 µM (inactive) | 2.74 µM (inactive) | 1.79 µM (inactive) | 1.09 µM (active) | 1.3 µM (inactive) | 1.31 µM (inactive) | 2.2 µM (inactive) | – | 1.49 µM (inactive) | 0.693 µM (active) | 1.19 µM (inactive) | 1.68 µM (inactive) | 2.53 µM (inactive)
4 | NC(=O)c1oc([N+](=O)[O-])c(-c2ccccc2)c1-c1ccccc1 | 1.24 µM (inactive) | 14.6 µM (inactive) | 12.2 µM (inactive) | 16.1 µM (inactive) | 27 µM (inactive) | 28.6 µM (inactive) | 15.5 | 36.1 µM (inactive) | 14.1 µM (inactive) | 31.6 µM (inactive) | – | 8.65 µM (inactive) | 6.27 µM (inactive) | 26.2 µM (inactive) | 24.8 µM (inactive) | 65.9 µM (inactive) | 19.1 µM (inactive) | 0.597 µM (active) | 44 µM (inactive) | 11 µM (inactive)
5 | O=C(/C=C/c1ccccc1)Oc1cccc(O)c1 | 73.8 µM (inactive) | – | 36.3 µM (inactive) | > 100 µM (inactive) | 18.3 µM (inactive) | > 100 µM (inactive) | 16.6 | > 100 µM (inactive) | 27.5 µM (inactive) | > 100 µM (inactive) | 9.55 µM (inactive) | > 100 µM (inactive) | 18.2 µM (inactive) | > 100 µM (inactive) | 44.3 µM (inactive) | 65 µM (inactive) | – | 37.5 µM (inactive) | 23.6 µM (inactive) | > 100 µM (inactive)
6 | N#Cc1ccccc1C(Cl)(Cl)c1cnccn1 | – | 34.3 µM (inactive) | > 100 µM (inactive) | 25.4 µM (inactive) | 99.3 µM (inactive) | > 100 µM (inactive) | – | 61.1 µM (inactive) | 24.2 µM (inactive) | 26.4 µM (inactive) | – | 30.5 µM (inactive) | 34 µM (inactive) | 59.6 µM (inactive) | 26.3 µM (inactive) | – | 20 µM (inactive) | 20.4 µM (inactive) | 51.2 µM (inactive) | 36.6 µM (inactive)
7 | O=C(NS(=O)(=O)OCC(Cl)(Cl)Cl)SCCC(F)(F)C(F)(F)C(F)(F)C(F)(F)C(F)(F)C(F)(F)F | 24.9 µM (inactive) | 28.6 µM (inactive) | 16.4 µM (inactive) | 10.4 µM (inactive) | 20.2 µM (inactive) | 29.5 µM (inactive) | 20.9 | 17.7 µM (inactive) | 22.5 µM (inactive) | 22.5 µM (inactive) | 18.5 µM (inactive) | 18.8 µM (inactive) | 32.7 µM (inactive) | 40.9 µM (inactive) | 51.3 µM (inactive) | 23.1 µM (inactive) | 22.8 µM (inactive) | – | 22.7 µM (inactive) | 25.9 µM (inactive)
8 | CC1CCC(=O)C(C(O)CC2CC(=O)N(c3ccccc3)C(=O)C2)C1 (stereo not drawn) | > 100 µM (inactive) | > 100 µM (inactive) | > 100 µM (inactive) | > 100 µM (inactive) | > 100 µM (inactive) | > 100 µM (inactive) | – | > 100 µM (inactive) | > 100 µM (inactive) | > 100 µM (inactive) | > 100 µM (inactive) | > 100 µM (inactive) | > 100 µM (inactive) | > 100 µM (inactive) | > 100 µM (inactive) | > 100 µM (inactive) | > 100 µM (inactive) | – | > 100 µM (inactive) | > 100 µM (inactive)
9 | COc1ccc(NC2Oc3cc4c(cc3C(c3cc(OC)c(O)c(OC)c3)C2C)OCO4)cc1 (stereo not drawn) | 5.21 µM (inactive) | 2.69 µM (inactive) | 48.2 µM (inactive) | 23.8 µM (inactive) | 3.5 µM (inactive) | 2.23 µM (inactive) | 1.79 | – | – | 7.73 µM (inactive) | 3.15 µM (inactive) | 2.74 µM (inactive) | 0.202 µM (active) | 4.01 µM (inactive) | 4.45 µM (inactive) | 2.11 µM (inactive) | – | 1.96 µM (inactive) | 3.73 µM (inactive) | 38.3 µM (inactive)
10 | CSc1nc2c(c(=O)n1C)N=C(c1ccc(Cl)cc1)CC(c1ccccc1)N2 (stereo not drawn) | 33.7 µM (inactive) | 20.7 µM (inactive) | 6.84 µM (inactive) | 33.8 µM (inactive) | 49 µM (inactive) | – | – | 29.4 µM (inactive) | 20.6 µM (inactive) | 39.4 µM (inactive) | 22 µM (inactive) | 16.1 µM (inactive) | 29.9 µM (inactive) | 19 µM (inactive) | 27.8 µM (inactive) | 13.3 µM (inactive) | 26 µM (inactive) | 19.5 µM (inactive) | 47.8 µM (inactive) | 17.6 µM (inactive)
11 | COc1cc(/C=C2/C(=O)NC(Cc3cc(OC)c(OC)c(C)c3OC)C(=O)N2Cc2ccccc2)c(OC)c(C)c1OC (stereo not drawn) | 47.2 µM (inactive) | 44.2 µM (inactive) | 44.4 µM (inactive) | 17.8 µM (inactive) | 80.2 µM (inactive) | 56.5 µM (inactive) | – | 49.2 µM (inactive) | 70 µM (inactive) | > 100 µM (inactive) | 24.3 µM (inactive) | 89.7 µM (inactive) | 14.3 µM (inactive) | 61.7 µM (inactive) | 47.4 µM (inactive) | 45.6 µM (inactive) | 39.7 µM (inactive) | 43.7 µM (inactive) | > 100 µM (inactive) | 58.6 µM (inactive)
12 | CC1NC(=O)C2=C1C(N)=NC(=O)C2 (stereo not drawn) | > 100 µM (inactive) | > 100 µM (inactive) | > 100 µM (inactive) | > 100 µM (inactive) | > 100 µM (inactive) | > 100 µM (inactive) | > 100 | > 100 µM (inactive) | > 100 µM (inactive) | > 100 µM (inactive) | > 100 µM (inactive) | > 100 µM (inactive) | > 100 µM (inactive) | > 100 µM (inactive) | > 100 µM (inactive) | > 100 µM (inactive) | – | > 100 µM (inactive) | > 100 µM (inactive) | > 100 µM (inactive)
13 | O=C1NC(=O)C(CC2CCCCCCCCCCC2=O)C(=O)N1 (stereo not drawn) | > 100 µM (inactive) | – | > 100 µM (inactive) | > 100 µM (inactive) | > 100 µM (inactive) | > 100 µM (inactive) | > 100 | > 100 µM (inactive) | > 100 µM (inactive) | > 100 µM (inactive) | – | > 100 µM (inactive) | 0.041 µM (active) | > 100 µM (inactive) | > 100 µM (inactive) | > 100 µM (inactive) | 1.2 µM (inactive) | > 100 µM (inactive) | > 100 µM (inactive) | > 100 µM (inactive)
14 | Oc1ccc(-c2nc3ccc4ccccc4c3c3c2CCCC3)c(O)c1 | 24.4 µM (inactive) | > 100 µM (inactive) | 66.8 µM (inactive) | 24.7 µM (inactive) | 20.4 µM (inactive) | 37.1 µM (inactive) | 26.5 | 48.6 µM (inactive) | 32.7 µM (inactive) | 34.9 µM (inactive) | 9.31 µM (inactive) | 19.5 µM (inactive) | 20.2 µM (inactive) | 28.8 µM (inactive) | 13.8 µM (inactive) | 28.7 µM (inactive) | – | 9.68 µM (inactive) | 19.2 µM (inactive) | > 63 µM (inactive)
15 | CC(=O)n1nnc2ccc([N+](=O)[O-])cc21 | > 100 µM (inactive) | > 100 µM (inactive) | > 100 µM (inactive) | > 100 µM (inactive) | > 100 µM (inactive) | > 100 µM (inactive) | – | > 100 µM (inactive) | > 100 µM (inactive) | > 100 µM (inactive) | > 100 µM (inactive) | > 100 µM (inactive) | > 100 µM (inactive) | > 100 µM (inactive) | > 100 µM (inactive) | > 100 µM (inactive) | > 100 µM (inactive) | > 100 µM (inactive) | > 100 µM (inactive) | > 100 µM (inactive)
